Experimental data reported in article PMC6347282, “Neutrophil elastase-cleaved corticosteroid-binding globulin is absent in human plasma” (The Journal of Endocrinology, 2018).

Target: T1, human corticosteroid-binding globulin (CBG; SERPINA6) (Homo sapiens, UniProt P08185)
T1 construct: RCL intact; no tag
T1 sequence (P08185 23-405): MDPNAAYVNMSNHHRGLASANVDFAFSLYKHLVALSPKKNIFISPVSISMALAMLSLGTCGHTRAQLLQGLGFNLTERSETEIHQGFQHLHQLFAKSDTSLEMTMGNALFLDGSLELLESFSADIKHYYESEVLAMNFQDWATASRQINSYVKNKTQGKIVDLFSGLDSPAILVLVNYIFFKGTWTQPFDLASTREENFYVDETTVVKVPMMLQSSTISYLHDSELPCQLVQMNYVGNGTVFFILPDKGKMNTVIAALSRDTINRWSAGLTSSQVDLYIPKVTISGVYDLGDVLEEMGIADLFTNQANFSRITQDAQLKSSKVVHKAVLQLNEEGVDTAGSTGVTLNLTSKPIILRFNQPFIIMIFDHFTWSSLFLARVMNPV
Assay: [3H]-corticosterone saturation binding, Scatchard analysis
Conditions: labelled compound; steroid-affinity purified plasma CBG, before 9G12 immunoprecipitation, ELISA-discordant sample; unreliable: unit doubtful, see left_out

SMILES: C[C@]12C[C@H](O)[C@H]3[C@@H](CCC4=CC(=O)CC[C@@]43C)[C@@H]1CC[C@@H]2C(=O)CO [corticosterone]
- Kd: 1.72 nM
